According to publication PMC7562719, “Discovery of a CNS penetrant small molecule SMN2 splicing modulator with improved tolerability for spinal muscular atrophy” (Scientific Reports, 2020):

What was measured:
Type in all cases: cell-based, human
FOXM1ΔC = assay: qPCR of FOXM1ΔC variant in GM03813 fibroblasts; details: 24 h, 300% total target mRNA increase, 95% CI in brackets
Protocol: (§1) GM03813 fibroblasts, GM24468-derived MNs, NRK-49F, MDCK, CV-1, or NCMDF cells were plated at a density of 0.5 or 1.5 × 10^4, 4 × 10^4, 5 × 10^3, 5 × 10^3, 8 × 10^3, or 6 × 10^3 cells/well on 96-well plates, respectively. After approximately 6 h, the medium was added with the same volume of culture medium containing each compound at the concentration of 0.06, 0.2, 0.6, 0.2, and 6 µM. The final concentration of DMSO was adjusted to 0.1% in culture condition.
(§2) All cells were treated with above compounds for 24 h and washed once with Dulbecco’s Phosphate-Buffered Saline without Ca and Mg [D-PBS (–)] (Wako or Nakarai Tesque). In case of using GM03813 or GM24468-derived MNs, cell lysis and reverse transcription were carried out using SuperPrep Cell Lysis & RT Kit for qPCR in accordance with manufacturer’s recommendations (Toyobo, Japan). qPCR was performed using THUNDERBIRD Probe qPCR Mix (Toyobo). The final concentrations of primers and probes were adjusted to 0.4 µM and 0.15 µM, respectively (Supplementary Table 1). Cycle conditions were as follows; 95 °C for 1 min; followed by 40 cycles of denaturation at 95 °C for 15 s; annealing and elongation at 60 °C for 1 min in the ViiA7 RT-PCR system (Thermo Fisher Scientific). The copy numbers of each target were normalized to those of GAPDH.

SMN2 splicing = assay: qPCR of SMN transcripts in motor neurons derived from SMA patient iPSCs (GM24468); details: iPSC-derived motor neurons (GM24468), 24 h
Protocol: GM24468 cells were differentiated to motor neurons (MNs) via a motor neuron progenitor (MNP) as previously reported. Briefly described, GM24468 were treated with a chemically defined neural medium, including DMEM/F12, Neurobasal medium at 1:1, 0.5% N2, 0.1% B27, 0.1 mM ascorbic acid (Sigma Aldrich, USA), 1 × GlutaMax, and 1 × penicillin/streptomycin. 3 µM CHIR99021 (Wako), 2 µM DMH1 (Sigma Aldrich) and 2 µM SB431542 (Wako) were added in the medium. The culture medium was changed every other day. GM24468 maintained under this condition for 6 days were induced into neuroepithelial progenitors (NEPs). NEPs were then dissociated and split with dispase (Stemcell technologies) and neural medium containing 0.1 µM RA (Sigma Aldrich), 0.5 µM Purmorphamine (Pur) (Merck, USA), 1 µM CHIR99021, 2 µM DMH1 and 2 µM SB431542. The medium was changed every other day. NEPs maintained under this condition for 6 days differentiated into OLIG2^+ MNPs. The OLIG2^+ MNPs were expanded with the same medium containing 1 µM CHIR99021, 2 µM DMH1, 2 µM SB431542, 0.1 µM RA, and 0.5 µM Pur, and split once a week. To induce MNs differentiation, OLIG2^+ MNPs cultured in suspension in the above neural medium with 0.5 µM RA and 0.1 µM Pur. The medium was changed every other day. OLIG2^+ MNPs under this condition for 6 days differentiated into MNX1^+ MNs. […]

FOXM1b = assay: qPCR of FOXM1b/c variant in GM03813 fibroblasts; details: for Selectivity FOXM1b /FL-SMN2: EC50 of FOXM1b divided by EC1.5× of FL-SMN2; for EC50: Homo sapiens, Fibroblast, GM03813 fibroblasts, 24 h, 50% total target mRNA reduction, 95% CI in brackets
Protocol: as §1, §2

HTT mRNA = assay: qPCR of HTT transcripts in GM03813 fibroblasts; details: for Selectivity HTT /FL-SMN2: EC50 of HTT divided by EC1.5× of FL-SMN2; for EC50: Homo sapiens, Fibroblast, GM03813 fibroblasts, 24 h, 50% total HTT mRNA reduction, 95% CI in brackets
Protocol: as §1, §2
In order to elucidate splicing pattern of cryptic GALC and HTT transcripts, GM03813 cells were seeded at 5 or 15 × 10^3 cells/well in 96-well plates and incubated with TEC-1 or SMN-C3 (0.03, 0.1, 0.3, 0.1, 1 or 3 µM) for 6 h under final concentration of 200 µg/ml CHX. For FOXM1, GM03813 fibroblasts were plated at 1.5 × 10^4 cells/well in 96-well plate and incubated with TEC-1, SMN-C3 or risdiplam (0.03, 0.1, 0.3 and 1 µM) for 24 h.
GM03813 fibroblasts and GM24468-derived MNs were seeded at 1.5 × 10^4 and 4 × 10^4 cells/well in 96-well plates and were treated with TEC-1 or SMN-C3 for 72 h at the concentration of 0.01, 0.03, 0.1, 0.3, 1, or 3 µM. After 72 h exposure of compound, GM24468 derived MNs and GM03813 fibroblasts were washed once with D-PBS (-), lysed with RIPA buffer (Wako) containing cOmplete (Sigma-Aldrich) and PhosSTOP (Sigma-Aldrich). The lysates were spun at 15,000 rpm for 15 min at 4 °C, and the supernatants were collected. The protein concentration was quantified with BCA kit (Wako). The lysates, adjusted to have the same protein amount, were mixed with NuPAGE LDS sample buffer containing DTT and heated at 95 °C for 5 min. Except for HTT detection, each sample (2 µg total protein/lane) was loaded Perfect NT Gel 7.5–15% gel (DRC, Japan) and run at 150 V for 60–70 min with Tris/glycine/SDS running buffer (BIO-RAD, USA). The proteins were transferred from the gel to Immobilon-P PVDF Membrane (Millipore, USA) with a transfer solution comprising 10% methanol and 1 × Novex Tris-glycine transfer buffer at 25 V for 180–240 min using Criterion blotter (BIO-RAD). In the case of HTT detection, each sample (2 µg total protein/lane) was loaded to Perfect NT Gel 7.5–15% gel and run at 150 V for 60–70 min with NuPAGE Tris–Acetate SDS Running Buffer. The proteins were transferred with a transfer solution comprising 10% methanol and 1 × Novex Tris-glycine transfer buffer at 25 V for 960 min using Criterion blotter. The membranes were blocked with Pierce Protein free T20 blocking reagent for 1 h and subsequently incubated with primary antibodies diluted with Can Get Signal Solution 1 (Toyobo) at room temperature for 1 h. Anti-SMN monoclonal antibody (MoAb)[15] […]

FOXM1a = assay: qPCR of FOXM1a variant in GM03813 fibroblasts; details: 24 h, 200% total target mRNA increase, 95% CI in brackets
Protocol: as §1, §2

| SMILES | EC4.0× FOXM1ΔC (FOXM1ΔC) | SMN2 splicing in motor neurons (SMN2 splicing; similar effects to TEC-1) | Selectivity FOXM1b /FL-SMN2 (FOXM1b) | EC50 (FOXM1b) | Selectivity HTT /FL-SMN2 (HTT mRNA) | EC50 (HTT mRNA) | EC3.0× FOXM1a (FOXM1a) | concentration showing clear ability to modulate SMN2 splicing (SMN2 splicing) | inclusion of the HTT cryptic exon or reduction of HTT at the mRNA and full-length protein levels (HTT mRNA; GM03813 cells) |
| --- | --- | --- | --- | --- | --- | --- | --- | --- | --- |
| CCN1CCC(c2cc(C)c3nc(-c4cc5c(C)nc(C)cn5n4)cc(=O)n3c2)CC1 [SMN-C3, reference compound] | 298.5 (248.8–355.8) nM | modulates SMN2 splicing | 8 | 945 nM | 4 | 547 nM | 280.3 (211.4–377.7) nM | – | – |
| Cc1cn2nc(-c3nc4ccc(N5CCN(C)CC5)cc4c(=O)[nH]3)cc2c(C)n1 [TEC-1, 2-(4,6-dimethylpyrazolo[1,5-a]pyrazin-2-yl)-6-(4-methylpiperazin-1-yl)quinazolin-4(3H)-one] | 1311.6 (864.7–2285.8) nM | – | > 61 | > 3000 nM | > 61 | > 3000 nM | 1096.8 (809.7–1552.2) nM | 30 nM | did not substantially impact |
